The text below walks through data of US20240018133A1, “MODULATORS OF THE INTEGRATED STRESS PATHWAY” (Calico Life Sciences LLC, priority 2019, published 2024).

The assay has as its system ATF4 luciferase reporter (human full-length ATF4 5'-UTR fused to firefly luciferase) in HEK293T cells. In words: ATF4-Luc assay (in vitro model of VWMD): HEK293T cells carrying ATF4 luciferase reporter, tunicamycin-treated. In kind it is cell-based. Conditions: Homo sapiens, HEK-293T, 1 μg/mL tunicamycin, 7 hours, One Glo luminescence. As for the experimental part:
In order to test exemplary compounds of the invention in a cellular context, a stable VWMD cell line was first constructed. The ATF4 reporter was prepared by fusing the human full-length ATF4 5′-UTR (NCBI Accession No. BC022088.2) in front of the firefly luciferase (FLuc) coding sequence lacking the initiator methionine as described in Sidrauski et al (eLife 2013). The construct was used to produce recombinant retroviruses using standard methods and the resulting viral supernatant was used to transduce HEK293T cells, which were then subsequently selected with puromycin to generate a stable cell line.
HEK293T cells carrying the ATF4 luciferase reporter were plated on polylysine coated 384-well plates (Greiner Bio-one) at 30,000 cells per well. Cells were treated the next day with 1 μg/mL tunicamycin and 200 nM of a compound of Formula (I) for 7 hours. Luminescence was measured using One Glo (Promega) as specified by the manufacturer. Cells were maintained in DMEM with L-glutamine supplemented with 10% heat-inactivated FBS (Gibco) and Antibiotic-Antimycotic solution (Gibco).
Table 2 below summarizes the EC50 data obtained using the ATF4-Luc assay for exemplary compounds of the invention.
In general terms: A reporter such as luciferase makes a cellular process visible.
Turning to `O=C(COc1ccc(Cl)c(F)c1)NC12CC(NC(=O)[C@H]3C[C@@H](O)c4cc(F)c(Cl)cc4O3)(C1)C2` (single isomer, unassigned) [Compound 206], the EC50 (as a rule, the concentration at which the effect is half-maximal) was under 10 nM.

Consider `O=C(NC12CCC(NC(=O)[C@H]3C[C@@H](O)c4cc(Cl)ccc4O3)(CC1)[C@@H](O)C2)c1cc(C(F)F)no1` (single isomer, unassigned) [Compound 215], for which the half-maximal effective concentration (EC50) was in the range of 10 to 50 nM.

For the molecule `O=C(NC12CCC(NC(=O)[C@@H]3C[C@H](O)c4cc(Cl)ccc4O3)(CC1)[C@@H](O)C2)c1cc(C(F)F)no1` (single isomer, unassigned) [Compound 216], the 50% effective concentration (EC50) lay within 250 to 500 nM.

As for `C[C@]1(O)C[C@@H](C(=O)NC23CC(NC(=O)COc4ccc(Cl)c(F)c4)(C2)C3)Oc2ccc(Cl)cc21` (single isomer, unassigned) [Compound 237], the EC50 was under 10 nM.

Take `O=C(COc1ccc(Cl)c(F)c1)NC12CCC(NC(=O)[C@H]3C[C@@H](O)c4cc(Cl)ccc4O3)(CC1)[C@@H](O)C2` (single isomer, unassigned) [Compound 238]: the half-maximal effective concentration (EC50) was under 10 nM.

Take `O=C(COc1ccc(Cl)c(F)c1)NC12CCC(NC(=O)[C@@H]3C[C@H](O)c4cc(Cl)ccc4O3)(CC1)[C@@H](O)C2` (single isomer, unassigned) [Compound 239]: the concentration for a half-maximal effect (EC50) is under 10 nM.

`Cc1cc2c(cc1F)[C@H](O)C[C@H](C(=O)NC13CC(NC(=O)COc4ccc(Cl)c(F)c4)(C1)C3)O2` (single isomer, unassigned) [Compound 241]: the EC50 was under 10 nM.

As for `O=C(COc1ccc(Cl)c(F)c1)NC12CC(NC(=O)[C@@H]3C[C@H](O)c4cc(Cl)c(F)cc4O3)(C1)C2` (single isomer, unassigned) [Compound 265], the half-maximal effective concentration (EC50) was under 10 nM.

With `C[C@@]1(O)C[C@H](C(=O)NC23CC(NC(=O)COc4ccc(Cl)c(F)c4)(C2)C3)Oc2ccc(Cl)cc21` (single isomer, unassigned) [Compound 280], the half-maximal effective concentration (EC50) lay within 10 to 50 nM.

Take `C[C@]1(O)C[C@H](C(=O)NC23CC(NC(=O)COc4ccc(Cl)c(F)c4)(C2)C3)Oc2ccc(Cl)cc21` (single isomer, unassigned) [Compound 281]: the EC50 was under 10 nM.

As to `C[C@@]1(O)C[C@@H](C(=O)NC23CC(NC(=O)COc4ccc(Cl)c(F)c4)(C2)C3)Oc2ccc(Cl)cc21` (single isomer, unassigned) [Compound 288], the EC50 was under 10 nM.

For the molecule `CN1CC(C(=O)NC23CCC(NC(=O)COc4ccc(Cl)c(F)c4)(CC2)[C@@H](O)C3)Oc2ccc(Cl)cc21` (stereo partly drawn) [Compound 107, 6-chloro-N-{(3S)-4-[2-(4-chloro-3-fluorophenoxy)acetamido]-3-hydroxybicyclo[2.2.2]octan-1-yl}-4-methyl-3,4-dihydro-2H-1,4-benzoxazine-2-carboxamide], the concentration giving a half-maximal response (EC50) is under 10 nM.

As to `CN1CC(C(=O)NC23CC(NC(=O)COc4ccc(Cl)c(F)c4)(C2)C3)Oc2ccc(Cl)cc21` (centres unmarked) [Compound 112, 6-chloro-N-{3-[2-(4-chloro-3-fluorophenoxy)acetamido]bicyclo[1.1.1]pentan-1-yl}-4-methyl-3,4-dihydro-2H-1,4-benzoxazine-2-carboxamide], the concentration giving a half-maximal response (EC50) is under 10 nM.

In the case of `O=C(COc1ccc(Cl)c(F)c1)NC12CC(NC(=O)C3CNc4cc(Cl)ccc4O3)(C1)C2` (centres unmarked) [Compound 113, 6-chloro-N-{3-[2-(4-chloro-3-fluorophenoxy)acetamido]bicyclo[1.1.1]pentan-1-yl}-3,4-dihydro-2H-1,4-benzoxazine-2-carboxamide], the concentration giving a half-maximal response (EC50) was under 10 nM.

As to `O=C(COc1ccc(Cl)c(F)c1)NC12CC(NC(=O)C3CN(C(=O)c4ccc(S(=O)(=O)F)cc4)c4cc(Cl)ccc4O3)(C1)C2` (centres unmarked) [Compound 147, 4-[6-chloro-2-({3-[2-(4-chloro-3-fluorophenoxy)acetamido]bicyclo[1.1.1]pentan-1-yl}carbamoyl)-2,3-dihydro-4H-1,4-benzoxazine-4-carbonyl]benzene-1-sulfonyl fluoride], the concentration giving a half-maximal response (EC50) lay within 500 to 2000 nM.

As to `CC(C)(C)OC(=O)CN1C[C@@H](C(=O)NC23CCC(NC(=O)COc4ccc(Cl)c(F)c4)(CC2)[C@@H](O)C3)Oc2ccc(Cl)cc21` [Compound 184, tert-butyl [(2S)-6-chloro-2-({(3S)-4-[2-(4-chloro-3-fluorophenoxy)acetamido]-3-hydroxybicyclo[2.2.2]octan-1-yl}carbamoyl)-2,3-dihydro-4H-1,4-benzoxazin-4-yl]acetate], the EC50 lay in the range of 250 to 500 nM.

Consider `O=C(COc1ccc(Cl)c(F)c1)NC12CC(NC(=O)C3CC(=O)c4cc(Cl)ccc4O3)(C1)C2` (centres unmarked) [Compound 186, 6-chloro-N-{3-[2-(4-chloro-3-fluorophenoxy)acetamido]bicyclo[1.1.1]pentan-1-yl}-4-oxo-3,4-dihydro-2H-1-benzopyran-2-carboxamide], for which the EC50 was under 10 nM.

As to `O=C(COc1ccc(Cl)c(F)c1)NC12CC(NC(=O)C3CC(NCCO)c4cc(Cl)ccc4O3)(C1)C2` (centres unmarked) [Compound 188, 6-chloro-N-{3-[2-(4-chloro-3-fluorophenoxy)acetamido]bicyclo[1.1.1]pentan-1-yl}-4-[(2-hydroxyethyl)amino]-3,4-dihydro-2H-1-benzopyran-2-carboxamide], the EC50 fell in the range of 10 to 50 nM.

Take `COC(C)(C)CN1C[C@@H](C(=O)NC23CC(NC(=O)COc4ccc(Cl)c(F)c4)(C2)C3)Oc2ccc(Cl)cc21` [Compound 191, (2S)-6-chloro-N-{3-[2-(4-chloro-3-fluorophenoxy)acetamido]bicyclo[1.1.1]pentan-1-yl}-4-(2-methoxy-2-methylpropyl)-3,4-dihydro-2H-1,4-benzoxazine-2-carboxamide]: the concentration for a half-maximal effect (EC50) was in the range of 500 to 2000 nM.

For `O=C(O)CNC1CC(C(=O)NC23CC(NC(=O)COc4ccc(Cl)c(F)c4)(C2)C3)Oc2ccc(Cl)cc21` (centres unmarked) [Compound 192, {[6-chloro-2-({3-[2-(4-chloro-3-fluorophenoxy)acetamido]bicyclo[1.1.1]pentan-1-yl}carbamoyl)-3,4-dihydro-2H-1-benzopyran-4-yl]amino}acetic acid], the concentration for a half-maximal effect (EC50) was in the range of 500 to 2000 nM.

As to `O=C(COc1ccc(Cl)c(F)c1)NC12CC(NC(=O)[C@@H]3C[C@H](O)c4cc(Cl)ccc4O3)(C1)C2` [Compound 195, (2S,4S)-6-chloro-N-{3-[2-(4-chloro-3-fluorophenoxy)acetamido]bicyclo[1.1.1]pentan-1-yl}-4-hydroxy-3,4-dihydro-2H-1-benzopyran-2-carboxamide], the 50% effective concentration (EC50) was under 10 nM.

In the case of `O=C(COc1ccc(Cl)c(F)c1)NC12CC(NC(=O)[C@H]3C[C@@H](O)c4cc(Cl)ccc4O3)(C1)C2` [Compound 196, (2R,4R)-6-chloro-N-{3-[2-(4-chloro-3-fluorophenoxy)acetamido]bicyclo[1.1.1]pentan-1-yl}-4-hydroxy-3,4-dihydro-2H-1-benzopyran-2-carboxamide], the EC50 was under 10 nM.

Regarding `O=C(COc1ccc(Cl)c(F)c1)NC12CC(NC(=O)[C@H]3C[C@H](O)c4cc(Cl)ccc4O3)(C1)C2` [Compound 197, (2R,4S)-6-chloro-N-{3-[2-(4-chloro-3-fluorophenoxy)acetamido]bicyclo[1.1.1]pentan-1-yl}-4-hydroxy-3,4-dihydro-2H-1-benzopyran-2-carboxamide], the 50% effective concentration (EC50) is under 10 nM.

Consider `O=C(COc1ccc(Cl)c(F)c1)NC12CC(NC(=O)[C@@H]3C[C@@H](O)c4cc(Cl)ccc4O3)(C1)C2` [Compound 198, (2S,4R)-6-chloro-N-{3-[2-(4-chloro-3-fluorophenoxy)acetamido]bicyclo[1.1.1]pentan-1-yl}-4-hydroxy-3,4-dihydro-2H-1-benzopyran-2-carboxamide], for which the concentration giving a half-maximal response (EC50) is under 10 nM.

Take `O=C(COc1ccc(Cl)c(F)c1)NC12CCC(NC(=O)C3CC(=O)c4cc(Cl)ccc4O3)(CC1)C[C@@H]2O` (stereo partly drawn) [Compound 199C, 6-chloro-N-{(3S)-4-[2-(4-chloro-3-fluorophenoxy)acetamido]-3-hydroxybicyclo[2.2.2]octan-1-yl}-4-oxo-3,4-dihydro-2H-1-benzopyran-2-carboxamide]: the EC50 was under 10 nM.

Consider `O=C(COc1ccc(Cl)c(Cl)c1)NC12CC(NC(=O)[C@H]3C[C@@H](O)c4cc(F)c(F)cc4O3)(C1)C2` [Compound 207, (2R,4R)—N-{3-[2-(3,4-dichlorophenoxy)acetamido]bicyclo[1.1.1]pentan-1-yl}-6,7-difluoro-4-hydroxy-3,4-dihydro-2H-1-benzopyran-2-carboxamide], for which the concentration giving a half-maximal response (EC50) was under 10 nM.

With `O=C(COc1ccc(Cl)c(Cl)c1)NC12CC(NC(=O)[C@H]3CC(=O)c4cc(F)c(F)cc4O3)(C1)C2` [Compound 207E, (2R)—N-{3-[2-(3,4-dichlorophenoxy)acetamido]bicyclo[1.1.1]pentan-1-yl}-6,7-difluoro-4-oxo-3,4-dihydro-2H-1-benzopyran-2-carboxamide], the EC50 was under 10 nM.

On to `O=C(COc1ccc(Cl)c(Cl)c1)NC12CC(NC(=O)[C@@H]3C[C@H](O)c4cc(F)c(F)cc4O3)(C1)C2` [Compound 208, (2S,4S)—N-{3-[2-(3,4-dichlorophenoxy)acetamido]bicyclo[1.1.1]pentan-1-yl}-6,7-difluoro-4-hydroxy-3,4-dihydro-2H-1-benzopyran-2-carboxamide], for which the concentration giving a half-maximal response (EC50) was under 10 nM.

Turning to `O=C(COc1ccc(Cl)c(F)c1)NC12CC(NC(=O)C3CC(NC4(C(=O)O)CC4)c4cc(Cl)ccc4O3)(C1)C2` (centres unmarked) [Compound 210, 1-{[6-chloro-2-({3-[2-(4-chloro-3-fluorophenoxy)acetamido]bicyclo[1.1.1]pentan-1-yl}carbamoyl)-3,4-dihydro-2H-1-benzopyran-4-yl]amino}cyclopropane-1-carboxylic acid], the concentration giving a half-maximal response (EC50) lay within 250 to 500 nM.
